# Measurements: patent publication US20120046273A1, “COMPOUNDS AND COMPOSITIONS FOR COGNITION-ENHANCEMENT, METHODS OF MAKING, AND METHODS OF TREATING” (MITHRIDION, INC., priority 2009, published 2012)
# Structures can show the parent of a compound that is named as a salt. Where two headings read alike, the source gives them in different places.
# Assays:
# [1] = Brain concentrations in rats after oral gavage; format: in vivo, rat; conditions: rat, 10 mg/kg po, relative to MCD-386
# Experimental: Long-Evans Hooded rats (Charles River: male, 250-350 g) were dosed with solutions of test compounds in PBS by oral gavage. At the desired time after dosing, the animals were anesthetized with isoflurane, and then euthanized by cervical dislocation. Blood was obtained by cardiac puncture, transferred to a 1.5 mL microcentrifuge tube containing 15U Heparin, and the plasma recovered after centrifugation. Brains were dissected, weighed, immediately chilled to 4° C., and homogenized using a PowerGen 125 homogenizer in five volumes of ice-cold 2% formic acid. Proteins were precipitated from plasma and brain homogenate with two and five volumes respectively of ice-cold 2% formic acid and clarified by centrifugation. The supernatant was ultra-filtered by centrifugation through a 3K MWCO spin column (Pall Life Sciences), following the manufacturer's instructions. The concentration of compound in the ultra-filtrate was subjected to reverse-phase liquid chromatography using a 150×2.1 mm Agilent C8 reverse-phase column on a Shimadzu Prominence LC, eluting the compounds with a gradient of 2% to 50% of acetonitrile+0.1% formic acid for compound MI-50,382, or an isocratic flow of 2% acetonitrile+0.1% formic acid for the rest of the compounds listed. The concentration of the compound in the column effluent was measured using an Applied Biosystems API-3200 triple quadrupole mass spectrometer equipped with an electrospray sample injection system. The counts of the characteristic parent and product ions of each test compound were converted to concentration units by comparison with a standard calibration curve.
# [2] = test system: apomorphine induced climbing; assay: Apomorphine induced climbing model of psychosis; format: in vivo, CD-I mice; conditions: mice, sc
# Experimental: As described in Costall et. al. European Journal of Pharmacology 1978, 50, 39. individual CD-I mice, 1-2 months old, were placed in a cylindrical wire mesh cage (13.2 cm high×13.2 cm diameter) constructed of steel wire 1 mm thick spaced at 1.2 cm^2. Cylinders were placed in a standard OptiMICE mouse cage (29×32×9×29 cm wide and 14 cm high) with adequate wood chip bedding provided. Observations of climbing (defined as 3 or more paws off the ground) were carried out every 5 minutes at a duration of 1 minute for 30 minutes. Animals were injected subcutaneously under isoflurane anesthesia with test compounds, reference compounds, which included clozapine, haloperidol, olanzapine and xanomeline, or PBS as a control. This was followed 5 minutes later by 2 mg/kg apomorphine hydrochloride. All drugs were dissolved in PBS or a mixture of (by volume) 96% PBS and 4% hydroxypropyl-beta-cyclodextrin, and dosed at a rate of 5 ml per kilogram of body weight. Following injections, animals were replaced in the mesh cages and observed for climbing (defined as 3 or more paws off the ground) every 5 minutes for a duration of 1 minute for 60 minutes after dosing.
# [3] = Brain/plasma concentration ratio after oral dosing to rats; conditions: rat
# [4] = Metabolites in serum and urine of dosed rats (LC-MS); format: in vivo; conditions: rat serum/plasma or urine, oral dosing
# Experimental: Oxadiazoles disclosed herein as well as other oxadiazoles were investigated to determine the formation of metabolites. Animals were dosed, blood taken, serum prepared, serum proteins precipitated and ultrafiltrates prepared as described in Example 6. In separate experiments, urine was collected from rats for 16-24 hours after dosing, using standard metabolic cages. The urine container and collected urine were maintained at 4° C. Urine was lyophilized, taken back into water. The ultrafiltrate was prepared by adding formic acid to a final concentration of 1% to the urine samples, then filtered through a 0.2 um nylon membrane. The ultrafiltrate was subjected to LC-MS analysis. Instead of measuring the product ions in Q3, manual Q1 scans of the liquid chromatograph were undertaken, seeking parent ions of potential metabolites of the compounds. The criteria for identifying metabolites were as follows: (1) the ion should be present in the sera or urines of dosed rats, but not in sera or urines from non-dosed rats (2) the ion should be identifiable as a metabolic derivative of the dosed compound (e.g. loss of a functional chemical moiety, addition of a hydroxyl group or a glucuronic acid moiety, etc). Metabolites were determined not to be present if no compound meeting the above criteria could be detected in serum or urine.
# [5] = Plasma concentration in rats, iontophoresis patch versus oral gavage; format: in vivo; conditions: Long Evans Hooded, rat
# Text: Two patches were made up, consisting (in order from the outer layer to the skin contacting surface, respectively): adhesive tape (Transpore, 27 mm wide, 3M), circular stainless steel electrodes (22 mm dia) with a central hole for a stainless steel machine screw to which the electrode wire was attached, and 2 layers of 3MM CHR filter paper (Cat #3030-861, Whatman International, Ltd).
# The mid-dorsal area of a Long Evans Hooded rat (approximate weight, 320 grams), surgically prepared with a jugular vein catheter (Charles River), was shaved and the skin was then cleaned using an Electrode Prep Pad (Professional Disposables, Inc, Cat #B59800). […]
# Blood (400 μl) was withdrawn from the catheters in each rat every 30 minutes, transferred to 1.5 ml centrifuge tubes containing heparin (15 units/tube), and the plasma was separated by centrifugation from the cellular components. The plasma samples were maintained at 4 deg C. until analyzed. […]
# The ultra-filtrates were subjected to reverse-phase liquid chromatography using a 150×2.1 mm Agilent C8 reverse-phase column on a Shimadzu Prominence LC, eluting the MCD-386 with an isocratic flow of 2% acetonitrile+0.1% formic acid. The concentration of MCD-386 in the column effluent was measured using an Applied Biosystems API-3200 triple quadrupole mass spectrometer equipped with a Turbo V source (electrospray sample injection) system. […]
# [6] = Metabolites in human serum samples; format: in vivo; conditions: 5mg dose cohort
# Experimental: The bioanalytical method for the extraction of metabolites from serum samples entailed adding 450 uL of a 90% acetonitrile +0.1% formic acid solution to 50 uL of the serum samples. The samples were vortexed and centrifuged at 16,000×g at 4° C. for 10 minutes. The supernatants were transferred to 3K molecular weight cut-off (MWCO) spin filters (Pall, Nanosep, #82031-346). Samples were filtered by centrifugation at 13,000×g at 4° C. for 20 minutes. The filtrates were transferred to a 96-well plate and sealed for LC/MS/MS analysis. The system used for this analysis was a Shimadzu Prominence HPLC system. […] The autosampler was maintained at 4° C. Injection volumes for all samples and standards were 40 uL. MRM methods for two possible metabolites were made. An API 3200 triple-quadrupole mass spectrometer with a Turbo V source (Applied Biosystems) was used, following commonly used procedures which would be readily set up by a person skilled in the art of LC-MS/MS. The counts of the characteristic parent and product ions of the free base metabolites were converted to concentration units by comparison with a standard calibration curve.
# [7] = Serum pharmacokinetics of immediate release capsules in human subjects; format: in vivo; conditions: male; for Cmax / half-life: oral
# Experimental: The hydrochloride salt of MCD-386 (“MCD-386 HCl”) was formulated with the following excipients and loaded into #3 hard gelatin capsules (5mg dose) or #2 hard gelatin capsules (0.2 mg dose).
# (§1) A single 5 mg capsule or 5×0.2 mg capsules (1 mg total dose) were administered orally to healthy male volunteer human subjects with 125 ml of water. Six such subjects receiving the 5 mg dose, and a different 6 subjects received the 1 mg dose.
# Venous blood samples were drawn at various intervals after dosing from each subject into standard tubes for bioanalytical and pharmacokinetic analysis. The blood was allowed to clot, and the serum separated, using common clinical laboratory techniques. Serum samples were stored at −20 deg C. until used for analysis.
# MCD-386 HCl, which exists in serum principally as the protonated form of MCD-386, was assayed in clinical serum samples as follows. 200 μL aliquots of serum samples were spiked with 50.0 μL of diluent for subject samples and QC samples and 50 μL of the appropriate intermediate standard solution for standards. Twenty five microliters (25.0 μL) of working internal standard stock solution and 40.0 μL of 10 N sodium hydroxide was then added and the samples were vortex mixed. Three milliliters (3.00 mL) of ethyl acetate was added followed by 5 minutes of vigorous vortexing and centrifugation. The top organic layer was transferred to a clean tube, evaporated to dryness, and the sample was reconstituted with 100 μL of diluent (0.1% formic acid). A 10 μL aliquot of this reconstituted sample was injected into Phenomenex Synergy 4 μ POLAR-RP, 75×2.0 mm (P/N 00C-4336-B0) on a Waters Acuity UPLC LC system, and eluted using a gradient of from 12% to 90% acetonitrile containing 0.1% formic acid/0.1% formic acid in water. The eluant flow of the LC was injected by Turbo Ion Spray (positive ion) into a Sciex API 4000 (Applied Biosystems). The MS/MS transitions monitored were 181.1 m/z to 111.0 m/z for MCD-386 HCl and 186.1 m/z to 111.1 m/z for the internal standard, D5- MCD-386 HCl. The calibration curve was linear between 0.100 ng/mL and 50.0 ng/mL for MCD-386 HCl. The lower limit of quantitation (LLOQ) was 0.100 ng MCD-386 HCl per mL of serum. MCD-386 HCl concentrations are expressed as free base.
# The bioanalytical results were analyzed using Win Nonlin software and common pharmacokinetic methods known to those skilled in the art.
# [8] = test system: healthy male volunteer human subjects; assay: Cholinergic side effects of immediate release capsules in human subjects; format: in vivo
# Experimental: as §1
# Subjects were monitored, among other things, for typical signs of muscarinic cholinergic action, such as increased salivation, lachrimation and diaphoresis.
smiles,measurement,setting,value
"CCc1noc(C2CN=CNC2)n1 (stereo not drawn) [Compound 18, 3-ethyl-5-(1,4,5,6-tetrahydropyrimidin-5-yl)-1,2,4-oxadiazole]",Brain Cmax (10 mg/kg po) MCD-386 = 1.00,[1],1.00
same,activity in the apomorphine induced climbing model,[2],inactive
same,Kp at 1 hour,[3],0.07 to 0.13
same,PAMPA (? × 106),PAMPA test,0.05 ? × 106
same,Presence of metabolites (10 mg/kg po),[4],Yes
same,concentration at 30 minutes,"[5]; other: iontophoresis patch (transdermal), 3.2 mg/kg, iontophoresis patch, dose 3.2 mg/kg",~850 nM
same,concentration at 30 minutes,"[5]; po, 10 mg/kg, oral gavage",911 nM
"CCc1noc(C2CN=CNC2)n1 (stereo not drawn) [MCD-386 HCl, 5-(3-ethyl-1,2,4-oxadiazol-5-yl)-1,4,5,6-tetrahydropyrimidine]",main metabolite of the free base identified in serum samples,[6],five out of six subjects
same,Cmax,[7]; 6 subjects receiving 1 mg of MCD-386 HCl,≤ 8 ng/mL
same,Cmax,[7]; 6 subjects receiving 5 mg of MCD-386 HCl,7.9 to 25.2 ng/mL
same,Tmax,[7]; oral immediate release capsules,1 to 1.5 h
same,half-life,"[7]; 0.2 mg, cohort of 6 subjects receiving 0.2 mg, +/- SD, read-out: mean half-life (converted)",1.2 h
same,half-life,"[7]; 1 mg, 1 mg cohort, +/- SD, read-out: half-life of the free base (converted)",1.44 h
same,half-life,"[7]; 5 mg, 5 mg cohort excluding one subject, read-out: mean half-life for the other 5 subjects (converted)",1.44 h
same,half-life,"[7]; 5 mg, 5 mg cohort, +/- SD, read-out: half-life of the free base (converted)",1.71 h
same,half-life,"[7]; 5 mg, 5 mg cohort, subject with the longest half-life, read-out: half-life in one subject (converted)",2.93 h
same,observable cholinergic side effects,"[8]; 1 mg total dose cohort, 6 subjects",none of the subjects
same,subjects with mild hypersalivation,[8]; 5 mg cohort,One
same,"subjects with mild, transient diaphoresis",[8]; 5 mg cohort,Two
same,subjects with moderate diaphoresis,[8]; 5 mg cohort,two
same,signs of muscarinic cholinergic activity,"[8]; 5 mg cohort, 6 subjects",four subjects showed signs of muscarinic cholinergic activity
